# Results as given in patent publication US9925170B2, “Methods of adipolysis and compositions useful therein” (priority 2015, dated 2018).
# Experiments:
# Human mature adipocytes = system: Human mature adipocytes
# Experimental: Human pre-adipocytes (Lonza, Allendale, N.J.) were differentiated into mature adipocytes according to the supplier's instructions. Mature adipocytes in maintenance medium (Zen-Bio, Research Triangle Park, N.C.) were treated with different statins (Sigma, St. Louis, Mo.) for 7 days over a range of concentrations. Cell viability was measured at Day 1, 3, 5, and 7 using the ALAMARBLUE® assay (Invitrogen, Carlsbad, Calif.).
# subcutaneous fat layer = details: 25 mg/kg intraperitoneal, 28 consecutive days (FIG. 6)
# Experimental: Three untreated mice were used as reference animals. On Day 29, all animals were sacrificed and histopathological examination of the dorsal lumbar skin was performed. […] The severity of subcutaneous fat atrophy was scored on a scale ranging from normal (score of “0”) to severe (score of “4”).
# [1] = system: subcutaneous adipose tissue; test: Daily topical or intraperitoneal administration in mice, histopathology of mid-scapular skin; format: in vivo, Female BALB/cAnNCrl mice
# Experimental: Female BALB/cAnNCrl mice were divided into five groups of three mice/group and seven groups of eight mice/group. Mice in Group 1 were age-matched, untreated pre-study reference animals, and mice in Group 2 were age-matched, untreated Day 29 reference animals. […] Mid-scapular skin was collected from each animal and histopathological examination was performed to determine the effects of the test articles on subcutaneous adipose deposition and skin thickness.
# [2] = intraperitoneal 25 mg/kg, 28 days
Compound,dose dependence of cytotoxic effect (Human mature adipocytes),fat layer atrophy in skin sections (subcutaneous fat layer),"atrophy of subcutaneous adipose tissue [1, 2]","atrophy of subcutaneous adipose tissue ([1]; topical 0.5%, 28 days)","atrophy of subcutaneous adipose tissue ([1]; topical 2.5%, 7 days)","atrophy of subcutaneous adipose tissue ([1]; topical 2.5%, 28 days)","atrophy of subcutaneous adipose tissue ([1]; topical 0.5%, 7 days)"
CC(C)n1c(/C=C/C(O)CC(O)CC(=O)O)c(-c2ccc(F)cc2)c2ccccc21 (stereo not drawn) [fluvastatin],dose-dependent cytotoxic effect,,,,,,
CC[C@H](C)C(=O)O[C@H]1C[C@@H](C)C=C2C=C[C@H](C)[C@H](CC[C@@H]3C[C@@H](O)CC(=O)O3)[C@H]21 [lovastatin],,significant fat layer atrophy,present in skin of all mice,Only one mouse,present in all mice,present in all mice,
Cc1ccc(N(CC2=NCCN2)c2cccc(O)c2)cc1 [phentolamine],,,present in skin of all mice,,present in mice,in one mouse,present in mice
CC(=O)[C@H]1CC[C@H]2[C@@H]3CC=C4C[C@@H](O)CC[C@]4(C)[C@H]3CC[C@]12C [pregnenolone],,,present in skin of all mice,present in a one mouse,,,
